This is an account of results in PubChem BioAssay AID248 (DTP/NCI, 2004).

Several values for one entry are separate records, joined by “and”; a condition that tells them apart may be missing. Identical values can stand only once. Inconclusive results and toxic doses are left out.

The test system of the test is L1210 leukemia ip in BDF1 mice, survival T/C. The test can be described thus: NCI In Vivo Anticancer Drug Screen. Data for tumor model L1210 Leukemia (intraperitoneal) in B6D2F1 (BDF1) mice. The note with it: endpoint: mean survival time, higher = longer survival. In a few lines:
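In this screen, tumor-bearing mice given compound are compared to those given vehicle, and their survival values are reported as a treated-to-control quotient.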

Where [1] appears, read: dose: 100.0 mg/kg/injection, schedule: Q04DX003 (ip), vehicle: saline with Tween-80.
[2] abbreviates: dose: 200.0 mg/kg/injection, schedule: Q04DX003 (ip), vehicle: saline with Tween-80.
Setting [3] is: dose: 400.0 mg/kg/injection, schedule: Q04DX003 (ip), vehicle: saline with Tween-80.
The mark [4] stands for this setting: dose: 100.0 mg/kg/injection, schedule: Q01DX001 (ip), vehicle: Klucel (hydroxypropylcellulose) (HPC).
The mark [5] stands for this setting: dose: 200.0 mg/kg/injection, schedule: Q01DX001 (ip), vehicle: Klucel (hydroxypropylcellulose) (HPC).
Where [6] appears, read: dose: 400.0 mg/kg/injection, schedule: Q01DX001 (ip), vehicle: Klucel (hydroxypropylcellulose) (HPC).
Where [7] appears, read: dose: 100.0 mg/kg/injection, schedule: Q01DX001 (ip), vehicle: saline.
Where [8] appears, read: dose: 200.0 mg/kg/injection, schedule: Q01DX001 (ip), vehicle: saline.
Where [9] appears, read: dose: 200.0 mg/kg/injection, schedule: Q01DX009 (ip), vehicle: saline.
The mark [10] stands for this setting: dose: 400.0 mg/kg/injection, schedule: Q01DX001 (ip), vehicle: saline.
Setting [11] is: dose: 400.0 mg/kg/injection, schedule: Q01DX009 (ip), vehicle: saline.
Setting [12] is: dose: 100.0 mg/kg/injection, schedule: Q01DX009 (ip), vehicle: saline.
The mark [13] stands for this setting: dose: 100.0 mg/kg/injection, schedule: Q04DX002 (ip), vehicle: saline.
Where [14] appears, read: dose: 200.0 mg/kg/injection, schedule: Q04DX002 (ip), vehicle: saline.
The mark [15] stands for this setting: dose: 400.0 mg/kg/injection, schedule: Q04DX002 (ip), vehicle: saline.

In the case of `CCOC(=O)CN(CC)CC(=O)OCC`, the T/C by setting is: (dose: 75.0 mg/kg/injection, schedule: Q01DX009 (ip), vehicle: saline with Tween-80) 107 % of control; under setting [1], 93 % of control; (dose: 150.0 mg/kg/injection, schedule: Q01DX009 (ip), vehicle: saline with Tween-80) 107 % of control; under setting [2], 98 % of control; (dose: 300.0 mg/kg/injection, schedule: Q01DX009 (ip), vehicle: saline with Tween-80) 109 % of control; under setting [3], 101 % of control.

Regarding `CC(=O)C(C[CH2][Hg][Cl])C(C)=O`, the T/C was 96 % of control (dose: 9.37 mg/kg/injection, schedule: Q01DX001 (ip), vehicle: other); 97 % of control (dose: 18.75 mg/kg/injection, schedule: Q01DX001 (ip), vehicle: other); 100 % of control (dose: 37.5 mg/kg/injection, schedule: Q01DX001 (ip), vehicle: other).

Consider `CCCOC(=O)c1ccccc1`, for which the T/C runs as follows: under setting [4], 100 % of control; under setting [5], 97 % of control; under setting [6], 97 % of control.

As for `c1cc(OC2CCCCO2)ccc1OC1CCCCO1` (configuration not stated), the T/C reads like this: (dose: 100.0 mg/kg/injection, schedule: Q01DX009 (ip), vehicle: saline with Tween-80) 98 % of control; under setting [1], 95 % of control; (dose: 200.0 mg/kg/injection, schedule: Q01DX009 (ip), vehicle: saline with Tween-80) 97 % of control; under setting [2], 93 % of control; (dose: 400.0 mg/kg/injection, schedule: Q01DX009 (ip), vehicle: saline with Tween-80) 97 % of control; under setting [3], 95 % of control.

`O=P1(Cc2ccccc2)CCC(O)=C1c1ccccc1` (configuration not stated): the T/C is 94 % of control under setting [1], 102 % of control under setting [2] and 91 % of control under setting [3].

For the compound `O=C1CC(c2ccccc2)=NCCN1`, the T/C (dose: 100.0 mg/kg/injection, schedule: Q01DX009 (ip), vehicle: Klucel (hydroxypropylcellulose) (HPC)) is 97 % of control; the T/C (dose: 200.0 mg/kg/injection, schedule: Q01DX009 (ip), vehicle: Klucel (hydroxypropylcellulose) (HPC)) is 95 % of control; the T/C (dose: 400.0 mg/kg/injection, schedule: Q01DX009 (ip), vehicle: Klucel (hydroxypropylcellulose) (HPC)) is 114 % of control.

Regarding `COc1ccc(CO)cc1`, the T/C by setting is: (dose: 75.0 mg/kg/injection, schedule: Q04DX003 (ip), vehicle: Klucel (hydroxypropylcellulose) (HPC)) 95 % of control; (dose: 150.0 mg/kg/injection, schedule: Q04DX003 (ip), vehicle: Klucel (hydroxypropylcellulose) (HPC)) 101 % of control; (dose: 300.0 mg/kg/injection, schedule: Q04DX003 (ip), vehicle: Klucel (hydroxypropylcellulose) (HPC)) 91 % of control.

Turning to `Cc1cc(N=[N+]([O-])c2ccc(N)c(C)c2)ccc1N`, the T/C by setting is: under setting [7], 95 % of control; under setting [8], 91 % of control; under setting [9], 96 % of control; under setting [10], 93 % of control; under setting [11], 96 % of control.

Consider `NC(C(=O)O)c1ccccc1C(=O)O` (configuration not stated), for which the T/C was 96 % of control under setting [1], 103 % of control under setting [2] and 103 % of control under setting [3].

Regarding `CCN=C(c1ccc(NC(=O)c2ccc(C(=O)Nc3ccc(C(=NCC)N(CC)C(=O)Nc4ccc(OCC)cc4)cc3)cc2)cc1)N(CC)C(=O)Nc1ccc(OCC)cc1`, the T/C (dose: 3.75 mg/kg/injection, schedule: Q01DX015 (ip), vehicle: methylcellulose (MC)) was 122 % of control and the T/C (dose: 7.5 mg/kg/injection, schedule: Q01DX015 (ip), vehicle: methylcellulose (MC)) is 150 % of control.

In the case of `CCCCS/C=C\SCCCC`, the T/C (dose: 100.0 mg/kg/injection, schedule: Q04DX002 (sc), vehicle: olive oil, sesame oil, peanut oil) is 107 % of control; the T/C (dose: 200.0 mg/kg/injection, schedule: Q04DX002 (sc), vehicle: olive oil, sesame oil, peanut oil) is 104 % of control; the T/C (dose: 400.0 mg/kg/injection, schedule: Q04DX002 (sc), vehicle: olive oil, sesame oil, peanut oil) is 104 % of control.

For `Nc1nc(N)c2c(n1)SCC(/C=N/O)=N2`, the T/C under setting [4] is 108 % of control, the T/C under setting [5] is 95 % of control and the T/C under setting [6] was 97 % of control.

`CC(C)(C)OC(=O)NC(CC(N)=O)C(=O)ON1C(=O)CCC1=O` (configuration not stated): the T/C is, setting by setting: (dose: 25.0 mg/kg/injection, schedule: Q01DX009 (ip), vehicle: saline) 95 % of control; (dose: 50.0 mg/kg/injection, schedule: Q01DX009 (ip), vehicle: saline) 99 % of control; under setting [12], 86 % of control; under setting [13], 108 % of control; under setting [9], 94 % of control and 99 % of control; under setting [14], 86 % of control. Also, the T/C is 105 % of control under setting [11] and 105 % of control under setting [15].

As for `CC(=O)OC12C=CC(C(C)=C1)C1C(=O)C=CC(=O)C12` (configuration not stated), the T/C by setting is: under setting [7], 103 % of control; under setting [12], 98 % of control; (dose: 100.0 mg/kg/injection, schedule: Q04DX003 (ip), vehicle: saline) 103 % of control; under setting [8], 97 % of control; under setting [9], 89 % of control; (dose: 200.0 mg/kg/injection, schedule: Q04DX003 (ip), vehicle: saline) 103 % of control. The T/C runs as follows: under setting [10], 97 % of control; under setting [11], 90 % of control; (dose: 400.0 mg/kg/injection, schedule: Q04DX003 (ip), vehicle: saline) 87 % of control.

`CN(C)CCC(C=O)(CCN(C)C)c1cccc2ccccc12`: the T/C was 116 % of control (dose: 25.0 mg/kg/injection, schedule: Q04DX002 (ip), vehicle: saline with Tween-80); 94 % of control (dose: 50.0 mg/kg/injection, schedule: Q04DX002 (ip), vehicle: saline with Tween-80); 94 % of control (dose: 100.0 mg/kg/injection, schedule: Q04DX002 (ip), vehicle: saline with Tween-80).

Take `CC(=O)OCC(C)c1ccccc1` (configuration not stated): the T/C was 96 % of control under setting [13], 103 % of control under setting [14] and 96 % of control under setting [15].

As to `CCC[N+](C)(C)CC[N+](C)(C)CCC`, the T/C reads like this: under setting [7], 99 % of control; under setting [8], 103 % of control; under setting [10], 101 % of control.

As for `Cc1ccc(/C=N/NC(N)=S)nn1`, the T/C is, setting by setting: under setting [13], 117 % of control; under setting [14], 98 % of control.

Consider `Nc1nc(N)c(N=Nc2ccc(SCC(=O)O)cc2)c(=O)[nH]1`, for which the T/C was 93 % of control under setting [7], 98 % of control under setting [8] and 96 % of control under setting [10].

`CC(C)(O)CNCCCN`: the T/C is, setting by setting: (dose: 75.0 mg/kg/injection, schedule: Q01DX001 (ip), vehicle: saline) 96 % of control; (dose: 150.0 mg/kg/injection, schedule: Q01DX001 (ip), vehicle: saline) 94 % of control; (dose: 300.0 mg/kg/injection, schedule: Q01DX001 (ip), vehicle: saline) 102 % of control.
